Paper PMC9579398 (Clinical and Translational Science, 2022)
Where two headings read alike, the source gives them in different places.

Tests used:
[1] = tested on: jejunum; conditions: mucosal to serosal direction, cited from earlier work
[2] = Ussing chamber drug transport across adult intestinal tissue; conditions: human
[3] = tested on: adult terminal ileum tissue; experiment: as above; conditions: adult, M > S (mucosal to serosal)
[4] = Ussing chamber drug transport across pediatric intestinal tissue; conditions: human
[5] = human in vivo; cited from earlier work
[6] = adult jejunum, ref Michiba et al., 2021 [19]
[7] = Papp, estimated marginal mean ± SE, adult, M > S (mucosal to serosal), mixed model
[8] = Papp, estimated marginal mean ± SE, adult, S > M (serosal to mucosal), mixed model
[9] = Papp, mean ± SD, adult, M > S (mucosal to serosal)
[10] = Papp, mean ± SD, adult, S > M (serosal to mucosal)
[11] = Papp, estimated marginal mean ± SE, pediatric, M > S (mucosal to serosal), mixed model
[12] = Papp, estimated marginal mean ± SE, pediatric, S > M (serosal to mucosal), mixed model
[13] = Papp, mean ± SD, pediatric, M > S (mucosal to serosal)
[14] = Papp, mean ± SD, pediatric, S > M (serosal to mucosal)

Compound	Papp [1, 6]	Papp [2, 7]	Papp [2, 8]	Papp [2, 9]	Papp [2, 10]	Papp, mean ± SD [3]	Papp [4, 11]	Papp [4, 12]	Papp [4, 13]	Papp [4, 14]	Papp ([1]; jejunum, ref Sjoberg et al., 2013 [17])	fraction absorbed [5]	efflux ratio [2]	Papp at 4 µM [2, 10]	efflux ratio [4]	Papp at 4 µM [4, 14]
CC(C)NCC(O)COc1cccc2ccccc12 (stereo not shown) [Propranolol]	7.8 ± 4.6 × 10^−6 cm/s	120 ± 12.8 nm/s	103 ± 12.7 nm/s	124 ± 62 nm/s	106 ± 50.2 nm/s	12.38 ± 6.15 ×10^–6 cm/s	79.8 ± 14.5 nm/s	77.4 ± 14.7 nm/s	74.9 ± 45.8 nm/s	82.7 ± 47 nm/s						
CC(C)c1nc(N(C)S(C)(=O)=O)nc(-c2ccc(F)cc2)c1/C=C/[C@@H](O)C[C@@H](O)CC(=O)O [Rosuvastatin]	1.6 ± 0.6 × 10^−6 cm/s	63.2 ± 9.7 nm/s	112 ± 9.1 nm/s	63 ± 28 nm/s	112 ± 54.9 nm/s		38 ± 8.8 nm/s	75.3 ± 10 nm/s	47.3 ± 20.4 nm/s	75.3 ± 36.6 nm/s	7.0 ± 1.0 × 10^−6 cm/s	50%	2.1 ± 1	112 ± 55 nm/s	1.3 ± 0.6	75 ± 37 nm/s
